Data from publication PMC6407913, “DREADD Agonist 21 Is an Effective Agonist for Muscarinic-Based DREADDs in Vitro and in Vivo” (ACS Pharmacology & Translational Science, 2018).
Substitutions are numbered along the chain they refer to. pEC50: −log10 of the molar value.

How the values were obtained:
[1] = molecular target: T1, hM3Dq (Homo sapiens, UniProt P20309, A239G/Y149C); test: Gq-mediated calcium release (FLIPR) assay; type: cell-based; conditions: CHO cells, mean ± SEM, read-out: pEC50 calcium mobilization (converted)
T1 construct: expressed in transfected cells

[2] = molecular target: dopamine D2 receptors (Homo sapiens, UniProt P14416); test: cAMP signaling concentration-response, agonist mode; type: cell-based
Description: (§1) HEK293 T cells were used for transient transfections and Gi mediated cAMP production assays. Assays were performed according to published procedures (PMID25895059, PRESTO-Tango paper). More detailed assay protocols are available at NIMH PDSP Web site (http://pdspdb.unc.edu/pdspWeb/?site=assays).

[3] = molecular target: T2, histamine H4 receptors (Homo sapiens, UniProt Q9H3N8); test: as above; type: cell-based
T2 construct: expressed in transfected cells; host or cells: HEK293T, transient
Description: as §1

[4] = molecular target: dopamine D3 receptors (Homo sapiens, UniProt P35462); test: as above; type: cell-based
Description: as §1

[5] = molecular target: T3, hM4Di (Homo sapiens, UniProt P08173, A203G/Y113C); test: ERK1/2 phosphorylation (pERK1/2) assay
T3 sequence (P08173 1-479 Y113C/A203G): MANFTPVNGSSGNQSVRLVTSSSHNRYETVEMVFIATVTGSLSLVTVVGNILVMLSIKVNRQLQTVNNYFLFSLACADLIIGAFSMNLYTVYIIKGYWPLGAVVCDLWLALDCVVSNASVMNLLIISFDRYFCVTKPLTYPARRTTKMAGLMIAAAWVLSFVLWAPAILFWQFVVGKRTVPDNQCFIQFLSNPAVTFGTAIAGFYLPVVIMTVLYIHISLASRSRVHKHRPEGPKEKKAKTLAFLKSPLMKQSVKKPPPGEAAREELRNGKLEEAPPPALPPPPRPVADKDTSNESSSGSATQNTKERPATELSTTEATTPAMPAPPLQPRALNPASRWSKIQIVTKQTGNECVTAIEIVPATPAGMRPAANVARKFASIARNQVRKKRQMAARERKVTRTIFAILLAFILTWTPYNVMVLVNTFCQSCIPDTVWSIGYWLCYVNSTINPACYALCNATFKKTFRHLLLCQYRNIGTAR

[6] = molecular target: T4, hM4 (Homo sapiens, UniProt P08173); test: pERK assay, antagonist mode (shift of ACh curve); type: cell-based; conditions: hM4, CHO cells
T4 construct: HA (hemagglutinin); expressed in transfected cells
T4 sequence (P08173 1-479): T3 sequence (P08173 1-479 Y113C/A203G) with C113Y, G203A

[7] = molecular target: T5, hM1Dq (Homo sapiens, UniProt P11229, A196G/Y106C); test: ERK1/2 phosphorylation (pERK1/2) assay
T5 sequence (P11229 1-460 Y106C/A196G): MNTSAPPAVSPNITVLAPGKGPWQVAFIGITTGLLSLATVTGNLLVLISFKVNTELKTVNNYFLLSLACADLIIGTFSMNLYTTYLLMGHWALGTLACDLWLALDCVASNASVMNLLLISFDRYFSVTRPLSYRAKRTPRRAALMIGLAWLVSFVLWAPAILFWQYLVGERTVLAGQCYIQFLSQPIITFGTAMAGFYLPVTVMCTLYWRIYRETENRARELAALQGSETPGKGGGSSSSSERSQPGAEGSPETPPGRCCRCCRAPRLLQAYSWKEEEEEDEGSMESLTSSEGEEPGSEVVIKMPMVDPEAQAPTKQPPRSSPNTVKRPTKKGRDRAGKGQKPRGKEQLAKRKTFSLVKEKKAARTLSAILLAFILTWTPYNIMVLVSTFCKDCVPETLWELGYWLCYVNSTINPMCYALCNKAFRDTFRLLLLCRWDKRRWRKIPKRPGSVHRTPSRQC

[8] = molecular target: T5, hM1Dq; test: IP-One accumulation assay
[9] = tested on: hM3Dq expressed in ARC AgRP neurons; test: food intake, hM3Dq in ARC AgRP neurons (Agrp-ires-Cre mice)
[10] = molecular target: D1 (Homo sapiens, UniProt P21728); test: cAMP Glo-sensor assay, antagonist mode; type: cell-based; conditions: human D1, HEK293T cells, vs dopamine
Description: HEK293T cells in 10 cm plates were transfected with 4 μg of Glosensor and 4 μg of DNA encoding the human dopamine D1 receptor. The next day, cells were harvested and plated in polylysine-coated 384-well plates (Greiner) at a density of 20 000 cells/well in DMEM containing 1% dFBS. The next day, media was aspirated from each well and replaced with 20 μL of assay buffer containing 4 mM luciferin. Then, 10 μL of drugs were added 30 min later, and plates were read after 15 min.
In the absence of C21 ([B] = 0), this equation becomes the standard four-parameter logistic equation for fitting agonist concentration–response data.

D1, sequence (P21728 whole entry): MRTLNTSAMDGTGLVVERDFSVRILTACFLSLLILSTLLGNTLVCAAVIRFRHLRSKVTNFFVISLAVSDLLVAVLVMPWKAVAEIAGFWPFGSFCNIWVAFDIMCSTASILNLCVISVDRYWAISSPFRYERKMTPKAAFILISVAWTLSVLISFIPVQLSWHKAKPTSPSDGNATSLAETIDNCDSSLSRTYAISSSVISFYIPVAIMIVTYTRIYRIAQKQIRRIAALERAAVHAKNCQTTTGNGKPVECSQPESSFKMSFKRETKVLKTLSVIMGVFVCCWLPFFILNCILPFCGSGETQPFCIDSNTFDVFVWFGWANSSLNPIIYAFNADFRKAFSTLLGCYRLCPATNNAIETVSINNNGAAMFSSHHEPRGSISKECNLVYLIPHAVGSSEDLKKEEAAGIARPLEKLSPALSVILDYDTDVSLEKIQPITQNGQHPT
dopamine D3 receptors, sequence (P35462 whole entry): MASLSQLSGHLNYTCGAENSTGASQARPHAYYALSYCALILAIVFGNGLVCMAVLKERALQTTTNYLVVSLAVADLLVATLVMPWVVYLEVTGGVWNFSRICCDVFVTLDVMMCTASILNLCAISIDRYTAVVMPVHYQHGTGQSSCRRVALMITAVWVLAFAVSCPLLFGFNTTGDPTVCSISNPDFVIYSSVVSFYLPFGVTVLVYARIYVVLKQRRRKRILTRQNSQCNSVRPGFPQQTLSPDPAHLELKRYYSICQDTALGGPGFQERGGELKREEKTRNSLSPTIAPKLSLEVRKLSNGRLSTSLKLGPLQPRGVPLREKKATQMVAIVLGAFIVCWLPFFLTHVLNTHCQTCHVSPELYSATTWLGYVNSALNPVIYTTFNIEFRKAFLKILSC
T1 sequence (P20309 whole entry Y149C/A239G): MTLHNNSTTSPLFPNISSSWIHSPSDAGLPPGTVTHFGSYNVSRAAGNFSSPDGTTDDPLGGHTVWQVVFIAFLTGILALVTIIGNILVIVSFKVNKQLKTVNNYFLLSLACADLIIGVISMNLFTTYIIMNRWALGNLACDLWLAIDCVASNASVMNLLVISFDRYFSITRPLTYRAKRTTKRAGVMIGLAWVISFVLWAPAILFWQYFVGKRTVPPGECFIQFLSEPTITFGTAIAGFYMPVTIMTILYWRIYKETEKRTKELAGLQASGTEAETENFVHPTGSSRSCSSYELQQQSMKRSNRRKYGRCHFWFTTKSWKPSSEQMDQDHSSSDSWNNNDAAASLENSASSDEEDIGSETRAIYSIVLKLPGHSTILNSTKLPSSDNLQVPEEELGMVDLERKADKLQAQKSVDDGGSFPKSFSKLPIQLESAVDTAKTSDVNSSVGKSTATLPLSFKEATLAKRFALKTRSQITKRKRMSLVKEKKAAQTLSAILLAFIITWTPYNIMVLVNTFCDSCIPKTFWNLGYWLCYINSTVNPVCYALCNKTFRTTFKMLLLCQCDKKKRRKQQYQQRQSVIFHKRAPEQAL
T2 sequence (Q9H3N8 whole entry): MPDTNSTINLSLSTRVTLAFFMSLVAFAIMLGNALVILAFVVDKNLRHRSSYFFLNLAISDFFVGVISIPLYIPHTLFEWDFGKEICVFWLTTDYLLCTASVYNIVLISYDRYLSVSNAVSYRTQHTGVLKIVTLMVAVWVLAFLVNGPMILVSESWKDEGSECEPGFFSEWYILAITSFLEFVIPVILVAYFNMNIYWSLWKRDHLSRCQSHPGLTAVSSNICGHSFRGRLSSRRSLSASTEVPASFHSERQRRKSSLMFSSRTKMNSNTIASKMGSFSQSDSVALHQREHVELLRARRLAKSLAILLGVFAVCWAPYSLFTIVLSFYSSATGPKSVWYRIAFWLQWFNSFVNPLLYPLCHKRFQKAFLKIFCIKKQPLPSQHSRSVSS
dopamine D2 receptors, sequence (P14416 whole entry): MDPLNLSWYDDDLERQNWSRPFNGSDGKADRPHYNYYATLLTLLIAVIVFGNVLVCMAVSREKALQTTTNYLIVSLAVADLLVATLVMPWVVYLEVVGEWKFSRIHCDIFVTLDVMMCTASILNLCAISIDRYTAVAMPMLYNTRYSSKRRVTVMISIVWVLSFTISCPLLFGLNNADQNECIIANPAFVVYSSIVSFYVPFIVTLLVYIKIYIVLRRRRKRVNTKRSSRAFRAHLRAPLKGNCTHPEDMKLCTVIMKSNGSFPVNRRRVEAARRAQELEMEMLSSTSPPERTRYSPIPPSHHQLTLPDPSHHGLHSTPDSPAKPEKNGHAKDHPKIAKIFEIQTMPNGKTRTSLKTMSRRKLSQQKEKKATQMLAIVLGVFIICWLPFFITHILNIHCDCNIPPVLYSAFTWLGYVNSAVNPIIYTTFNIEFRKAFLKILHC

Structure (SMILES): c1ccc2c(c1)N=C(N1CCNCC1)c1ccccc1N2 [C21, 11-(1-piperazinyl)-5H-dibenzo[b,e][1,4]diazepine]
- EC50 [1]: 3.31 nM
- agonist activity, follow-up concentration-response (cAMP) [2]: minimal activity
- agonist activity, follow-up concentration-response (cAMP) [3]: minimal activity
- agonist activity, follow-up concentration-response (cAMP) [4]: minimal activity
- pEC50 [5]: 7.77
- antagonist activity (shift of acetylcholine curve, pERK) [6]: weak functional antagonism
- pEC50 [7]: 6.54
- pEC50 [8]: 8.91
- food intake, light cycle, sated mice ([9]; AgRP-ires-Cre mice with AAV-DIO-hM3Dq-mCherry, i.p.): dose-dependently promoted food consumption at comparable levels to CNO
- food intake in control mice ([9]; wildtype (non-Cre-expressing) littermates injected with AAV-DIO-hM3Dq-mCherry): neither C21 nor CNO affected feeding behavior
- antagonist activity, cAMP assay [10]: antagonism
